The nature of data set [1]: Toxicity in BALB/c mouse assessed as increase in liver weight at 20 mg/kg, po administered for 5 days and measured after 1 day. It counts as organism-based. As to conditions: in vivo, 120 h, time 5 day.
The nature of data set [2]: Toxicity in BALB/c mouse assessed as changes in liver weight at 20 mg/kg, po administered for 5 days and measured after 14 days. It counts as organism-based. As to conditions: in vivo, 120 h, time 5 day.
Data set [3] is described as follows: Toxicity in BALB/c mouse assessed as increase in serum AST level at 20 mg/kg, po administered for 5 days and measured on day 1 and day 14 by ELISA method. As to conditions: in vivo, 120 h, time 5 day. It counts as organism-based.
A short description of data set [4]: Toxicity in BALB/c mouse assessed as increase in serum ALT level at 20 mg/kg, po administered for 5 days and measured on day 1 and day 14 by ELISA method. Type of data set: organism-based. Particulars: in vivo, 120 h, time 5 day. Background: An ELISA detects its analyte on a solid surface through an enzyme-linked reagent.
The nature of data set [5]: Toxicity in BALB/c mouse assessed as increase in creatinine level at 20 mg/kg, po administered for 5 days and measured after 1 day by colorimetric assay. Type of data set: organism-based. Particulars: in vivo, 120 h, time 5 day.
Data set [6] can be described thus: Toxicity in BALB/c mouse assessed as increase in creatinine level at 20 mg/kg, po administered for 5 days and measured after 14 days by colorimetric assay. It counts as organism-based. Particulars: in vivo, 120 h, time 5 day.
Data set [7] can be described thus: Toxicity in BALB/c mouse assessed as hydropic degeneration at 20 mg/kg, po administered for 5 days and measured after 1 day by hematoxylin-eosin staining based microscopic analysis. Type of data set: organism-based. Particulars: in vivo, 120 h, time 5 day.
A short description of data set [8]: Toxicity in BALB/c mouse assessed as disseminated necrosis of hepatocytes at 20 mg/kg, po administered for 5 days and measured after 1 day by hematoxylin-eosin staining based microscopic analysis. Type of data set: organism-based. As to conditions: in vivo, 120 h, time 5 day.
The nature of data set [9]: Toxicity in BALB/c mouse assessed as changes in size of hepatocyte nuclei at 20 mg/kg, po administered for 5 days and measured after 1 day by hematoxylin-eosin staining based microscopic analysis. Type of data set: organism-based. As to conditions: hepatocytes, 120 h, time 5 day.
Data set [10] concerns Toxoplasma gondii. In words: Antiparasitic activity against Toxoplasma gondii RH infected in BALB/c mouse assessed as prolongation of animal survival at 20 mg/kg, po administered every 24 hrs for 5 days starting from 24 hrs post infection by Kaplan-Meier method. As to conditions: time 5.0 day. Type of data set: functional, organism-based.
Data set [11] relates to Toxoplasma gondii. In words: Antiparasitic activity against Toxoplasma gondii RH infected in BALB/c mouse assessed as reduction of daughter tachyzoites in blood at 20 mg/kg, po administered every 24 hrs for 5 days starting from 24 hrs post infection by real-time qPCR analysis. It counts as functional, organism-based. Particulars: time 5.0 day.
In data set [12] the test system is Toxoplasma gondii. In words: Antiparasitic activity against Toxoplasma gondii RH infected in BALB/c mouse assessed as decrease in IFNgamma level in serum at 20 mg/kg, po administered every 24 hrs for 5 days starting from 24 hrs post infection by ELISA method. Type of data set: functional, organism-based. As to conditions: time 5.0 day.
Data set [13] has as its system Toxoplasma gondii. In words: Antiparasitic activity against Toxoplasma gondii RH infected in BALB/c mouse assessed as reduction of bradyzoite gene copies in brain at 20 mg/kg, po administered every 24 hrs for 5 days starting from 24 hrs post infection by real-time qPCR analysis. As to conditions: time 5.0 day. Type of data set: functional, organism-based. (In general: In qPCR the cycle at which signal appears reflects the starting amount.)

Data set [14] deals with Toxoplasma gondii. The data set can be described thus: Antiparasitic activity against Toxoplasma gondii RH infected in BALB/c mouse assessed as reduction in number of bradyzoite gene copies in muscles at 20 mg/kg, po administered every 24 hrs for 5 days starting from 24 hrs post infection by real-time qPCR analysis. Type of data set: functional. As to conditions: time 5 day.

The test system of data set [15] is Toxoplasma gondii. In words: Antiparasitic activity against Toxoplasma gondii DX infected in C3H/HeOuJ mouse assessed as prolongation of survival at 20 mg/kg, po administered every 24 hrs for 5 days starting from 24 hrs post infection by Kaplan-Meier method. It counts as functional, organism-based. Particulars: time 5.0 day.

This passage reports Activity results from ChEMBL document CHEMBL5247617, “4-Arylthiosemicarbazide derivatives - Pharmacokinetics, toxicity and anti-Toxoplasma gondii activity in vivo” (Eur J Med Chem, 2022).

Activity calls are given as the source filed them. The calls are words filed in the database; no cut-off is given here.

Consider `CCc1nc(N)nc(N)c1-c1ccc(Cl)cc1` [PYRIMETHAMINE], for which the Activity entry in [1] is recorded as “Toxic”; in data set [2], “Non-Toxic”; in data set [3] it was “Toxic”; in data set [4], “Toxic”; in data set [5] it was “Toxic”; in data set [6] it was “Toxic”. Besides, the Activity result in [7] is listed as “Toxic”; in [8], “Toxic”; in [9] it was “Toxic”; in the data set with Toxoplasma gondii [14], 14. Besides, the result in the data set with Toxoplasma gondii [10], with Toxoplasma gondii [11], in the data set on Toxoplasma gondii [12], with Toxoplasma gondii [13] and in the data set on Toxoplasma gondii [15] was Active.
